From patent US20090306219A1, “TOPICAL USE OF PLANT EXTRACT FOR SKIN DETOXIFICATION” (priority 2008, published 2009)

Legend:
[1] = test system: glutathione; test: ELISA quantification of glutathione in keratinocyte culture; type: cell-based; conditions: 0.0005%, Treatment
Method: In simple terms, in ELISA an unknown amount of antigen is affixed to a surface, and then a specific antibody is washed over the surface so that it can bind to the antigen. […] This antibody is linked to an enzyme, and in the final step a substance is added that the enzyme can convert to some detectable signal. Thus in the case of fluorescence ELISA, when light is shone upon the sample, any antigen/antibody complexes will fluoresce so that the amount of antigen in the sample can be measured.
The ELISA kit used in this experiment was purchased from Cayman Chemicals. The experiment was performed as per the manufacturer's directions.

[2] = test system: glyoxalase I; test: Quantification of Glyoxalase I via immunoassay (western blot) in keratinocyte culture; type: cell-based; conditions: 0.0005%, keratinocyte culture treated 24 hrs
Method: The blots were then transferred and probed with a fluorescent anti-body to glyoxalse I, purchased from Santa Cruz Biotechnology. Absorbance was measured and graphed.

C=CCSSSCC=C [Diallyl Trisulfide]
Glut Mean ([1]; Untreated mean 19): 21
Glut 1 ([1]; replicate 1, Untreated 18): 20
abs 1 ([1]; replicate 1 absorbance): 0.033
Glut 2 ([1]; replicate 2, Untreated 20): 22
abs 2 ([1]; replicate 2 absorbance): 0.036
Glut 3 ([1]; replicate 3, Untreated 20): 20
abs 3 ([1]; replicate 3 absorbance): 0.034
Inv OD 1 ([2]; replicate 1): 91.6
OD1 ([2]; replicate 1): 125.205
Inv OD 2 ([2]; replicate 2): 90.7
OD 2 ([2]; replicate 2): 126.011
Inv OD 3 ([2]; replicate 3): 71.1
OD 3 ([2]; replicate 3): 145.641
Inv OD 4 ([2]; replicate 4): 129.4
OD4 ([2]; replicate 4): 87.372
Inv OD 5 ([2]; replicate 5): 93.0
OD 5 ([2]; replicate 5): 123.78
Inv OD 6 ([2]; replicate 6): 86.2
OD 6 ([2]; replicate 6): 130.525
Inv OD Mean ([2]; significantly different from Untreated (mean 66.5)): 93.7
